Assay results from patent publication US20260138961A1, “MODULATORS OF MITOCHONDRIAL DNA REPLICATION” (Pretzel Therapeutics, Inc., priority 2022, published 2026).

target: T1, POLγA:G848S (Homo sapiens, UniProt P54098, G848S); experiment: DNA polymerization assay, POLγA:G848S mutant; assay type: biochemical; settings: stimulation of polymerase activity, primed M13mp18 ssDNA, 37° C. 2 hours; read-out: G848S AC50
T1 sequence (P54098 1-1239 G848S): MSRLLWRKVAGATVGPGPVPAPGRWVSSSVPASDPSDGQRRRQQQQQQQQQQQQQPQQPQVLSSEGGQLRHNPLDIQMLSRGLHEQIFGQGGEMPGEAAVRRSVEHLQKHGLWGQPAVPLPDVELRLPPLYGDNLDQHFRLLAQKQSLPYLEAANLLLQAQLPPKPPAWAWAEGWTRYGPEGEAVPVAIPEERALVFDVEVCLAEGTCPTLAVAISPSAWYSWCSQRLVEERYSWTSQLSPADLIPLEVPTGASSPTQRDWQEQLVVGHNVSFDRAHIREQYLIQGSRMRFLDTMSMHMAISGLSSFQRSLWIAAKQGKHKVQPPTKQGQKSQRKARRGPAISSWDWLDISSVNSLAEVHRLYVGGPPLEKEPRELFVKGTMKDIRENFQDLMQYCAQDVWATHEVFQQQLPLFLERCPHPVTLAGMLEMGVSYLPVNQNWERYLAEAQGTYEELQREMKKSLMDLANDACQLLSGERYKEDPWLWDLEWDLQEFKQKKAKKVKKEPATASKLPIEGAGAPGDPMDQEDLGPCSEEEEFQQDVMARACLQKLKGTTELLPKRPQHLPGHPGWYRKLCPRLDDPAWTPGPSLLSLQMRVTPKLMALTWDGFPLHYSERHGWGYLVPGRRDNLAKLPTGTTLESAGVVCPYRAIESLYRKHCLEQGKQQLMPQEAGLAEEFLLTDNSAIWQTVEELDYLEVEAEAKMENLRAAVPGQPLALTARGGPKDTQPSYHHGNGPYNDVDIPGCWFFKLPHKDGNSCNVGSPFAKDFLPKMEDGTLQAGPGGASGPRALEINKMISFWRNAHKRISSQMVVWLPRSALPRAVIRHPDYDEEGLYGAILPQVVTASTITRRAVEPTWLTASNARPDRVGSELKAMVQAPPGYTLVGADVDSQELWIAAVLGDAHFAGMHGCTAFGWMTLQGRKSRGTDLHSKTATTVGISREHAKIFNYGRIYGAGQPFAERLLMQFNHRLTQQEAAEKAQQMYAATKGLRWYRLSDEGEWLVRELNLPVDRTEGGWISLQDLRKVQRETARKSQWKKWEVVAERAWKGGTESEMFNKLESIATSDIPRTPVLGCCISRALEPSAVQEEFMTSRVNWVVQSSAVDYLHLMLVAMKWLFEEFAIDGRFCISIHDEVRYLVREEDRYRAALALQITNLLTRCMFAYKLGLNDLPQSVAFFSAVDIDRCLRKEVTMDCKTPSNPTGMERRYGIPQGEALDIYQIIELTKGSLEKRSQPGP
T1 sequence (Q9UHN1 1-485 partner): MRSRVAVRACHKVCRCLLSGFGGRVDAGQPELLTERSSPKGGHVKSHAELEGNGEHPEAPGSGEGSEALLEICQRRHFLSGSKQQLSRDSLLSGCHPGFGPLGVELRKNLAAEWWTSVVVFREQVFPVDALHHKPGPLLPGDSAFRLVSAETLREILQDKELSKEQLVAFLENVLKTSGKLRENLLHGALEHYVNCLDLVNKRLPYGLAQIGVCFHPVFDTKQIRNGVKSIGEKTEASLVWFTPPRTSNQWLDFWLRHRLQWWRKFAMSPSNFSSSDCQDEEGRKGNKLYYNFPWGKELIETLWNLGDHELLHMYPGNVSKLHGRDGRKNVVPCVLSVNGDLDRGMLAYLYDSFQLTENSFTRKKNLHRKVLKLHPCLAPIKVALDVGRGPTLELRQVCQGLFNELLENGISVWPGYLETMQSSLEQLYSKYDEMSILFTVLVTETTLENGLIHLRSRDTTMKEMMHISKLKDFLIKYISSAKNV

AC50 [µM]	SMILES
30	Cc1cc(S(=O)(=O)Nc2cccc(C(=O)N(C)C(C)CO)c2)c(C)cc1Cl (single isomer, unassigned) [Example 15, 3-((4-chloro-2,5-dimethylphenyl)sulfonamido)-N-(1-hydroxypropan-2-yl)-N-methylbenzamide]
2	Cc1csc(-c2cccc(NS(=O)(=O)c3cc(C)c(Cl)cc3C)c2)n1 [Example 20, 4-chloro-2,5-dimethyl-N-(3-(4-methylthiazol-2-yl)phenyl)benzenesulfonamide]
2	Cc1cnc(-c2cccc(NS(=O)(=O)c3cc(C)c(Cl)cc3C)c2)s1 [Example 21, 4-chloro-2,5-dimethyl-N-(3-(5-methylthiazol-2-yl)phenyl)benzenesulfonamide]
> 100	Cc1cc(S(=O)(=O)N(C)c2cccc(-c3nccs3)c2)c(C)cc1Cl [Example 22, 4-chloro-N,2,5-trimethyl-N-(3-(thiazol-2-yl)phenyl)benzenesulfonamide]
> 100	Cc1ccccc1S(=O)(=O)Nc1cccc(C(=O)N2CCOC[C@@H]2C)c1 [Example 23, (S)-2-methyl-N-(3-(3-methylmorpholine-4-carbonyl)phenyl)benzenesulfonamide]
> 100	Cc1ccc(C)c(S(=O)(=O)Nc2cccc(C(=O)N3CCSCC3)c2)c1 [Example 24, 2,5-dimethyl-N-(3-(thiomorpholine-4-carbonyl)phenyl)benzenesulfonamide]
> 100	Cc1ccc(C)c(S(=O)(=O)Nc2cccc(C(=O)N(C)C)c2)c1 [Example 25, 3-((2,5-dimethylphenyl)sulfonamido)-N,N-dimethylbenzamide]
50	Cc1ccc(C)c(S(=O)(=O)Nc2cccc(C(=O)N(C)Cc3ccccc3)c2)c1 [Example 26, N-benzyl-3-((2,5-dimethylphenyl)sulfonamido)-N-methylbenzamide]
> 100	Cc1ccc(C)c(S(=O)(=O)Nc2cccc(C(N)=O)c2)c1 [Example 27, 3-((2,5-dimethylphenyl)sulfonamido)benzamide]
> 100	Cc1ccc(C)c(S(=O)(=O)Nc2cccc(C(=O)NCc3ccccc3)c2)c1 [Example 28, N-benzyl-3-((2,5-dimethylphenyl)sulfonamido)benzamide]
33	Cc1ccc(C)c(S(=O)(=O)Nc2cccc(C(=O)N3CCOCC3)c2)c1 [Example 29, 2,5-dimethyl-N-(3-(morpholine-4-carbonyl)phenyl)benzenesulfonamide]
22	CC(=O)N1CCN(C(=O)c2cccc(NS(=O)(=O)c3cc(C)ccc3C)c2)CC1 [Example 30, N-(3-(4-acetylpiperazine-1-carbonyl)phenyl)-2,5-dimethylbenzenesulfonamide]
> 100	Cc1ccc(C)c(S(=O)(=O)Nc2cccc(C(=O)N3CCN(C)CC3)c2)c1 [Example 31, 2,5-dimethyl-N-(3-(4-methylpiperazine-1-carbonyl)phenyl)benzenesulfonamide]
35	Cc1ccc(C)c(S(=O)(=O)Nc2cccc(C(=O)N3CCCCCC3)c2)c1 [Example 32, N-(3-(azepane-1-carbonyl)phenyl)-2,5-dimethylbenzenesulfonamide]
56	Cc1ccc(C)c(S(=O)(=O)Nc2cccc(C(=O)N(C)CC3CC3)c2)c1 [Example 33, N-(cyclopropylmethyl)-3-((2,5-dimethylphenyl)sulfonamido)-N-methylbenzamide]
37	COc1ccc(S(=O)(=O)Nc2cccc(C(=O)N3CCSCC3C#N)c2)cc1 (stereo not drawn) [Example 34, N-(3-(3-cyanothiomorpholine-4-carbonyl)phenyl)-4-methoxybenzenesulfonamide]
> 100	N#CC1CSCCN1C(=O)c1cccc(NS(=O)(=O)c2cccc(C(F)(F)F)c2)c1 (stereo not drawn) [Example 35, N-(3-(3-cyanothiomorpholine-4-carbonyl)phenyl)-3-(trifluoromethyl)benzenesulfonamide]
> 100	Cc1cc(S(=O)(=O)Nc2cccc3c2CC(=O)N3)c(C)cc1Cl [Example 36, 4-chloro-2,5-dimethyl-N-(2-oxoindolin-4-yl)benzenesulfonamide]
